Assay results: patent US20260108512A1, “COMPOUNDS, COMPOSITIONS AND METHODS OF TREATING DISORDERS” (HOTSPOT THERAPEUTICS, INC., priority 2022, published 2026)

target: T1, Cbl-b (Homo sapiens, UniProt Q13191); test: Cbl-b LCK Ub TR-FRET assay; assay type: biochemical; conditions: average IC50, graded A-C; read-out: CBL-B_TR-FRET_AVG_IC50
T1 construct: biotin (biotinylated protein)
Procedure: Compounds are 3-fold serially diluted in DMSO in a 384-well polypropylene plate (e.g., #P-05525-BC; Labcyte) to generate a source plate with 10 concentrations of each compound, top concentration=2 mM. 80 nL of DMSO or compounds are transferred to each well of a black 384-well ProxiPlate (e.g., #6008260; PerkinElmer) using a Labcyte Echo, 1×assay buffer (50 mM HEPES pH7.0, 100 mM NaCl, 0.01% BSA, 0.01% Triton-X100, 1 mM DTT), 2×enzyme solution (16 nM Biotin-Cbl-b or 12 nM Biotin-c-Cbl in 1×assay buffer), 2×kinase mixture (120 nM His-LCK, 1 mM ATP, 10 mM MgCl2 in assay buffer) and 2.33×detection mixture (4.66×solution 1:163 nM Anti-HA-D2 antibody (e.g., #610HADAB:PerkinElmer), 27.96 nM Streptavidin-EU (e.g., #AD0062; PerkinElmer), 1.398 mM EDTA in 1×assay buffer+4.66×solution 2:2.796 pM UBE2D2/Methylated-HA-Ubiquitin thioester adduct (e.g., BostonBiochem) in 1×assay buffer) are prepared. 4 μL of 2×enzyme solution are added to each well containing compound, briefly centrifuged to mix, and incubated for 60 min at room temperature. 4 μL of 2×kinase mixture is added, briefly centrifuged to mix, and incubated for 90 min. at room temperature. 6 μL of detection mixture is added to all wells and briefly centrifuged before incubating for 20 min at room temperature. Plates am read for TR-FRET using an Envision at excitation 340 nm, emission at 615 and 665 nm, 4 flashes per well. IC50 is generated using no LCK as the low control and DMSO as the high control.

T1 sequence (Q13191 40-426): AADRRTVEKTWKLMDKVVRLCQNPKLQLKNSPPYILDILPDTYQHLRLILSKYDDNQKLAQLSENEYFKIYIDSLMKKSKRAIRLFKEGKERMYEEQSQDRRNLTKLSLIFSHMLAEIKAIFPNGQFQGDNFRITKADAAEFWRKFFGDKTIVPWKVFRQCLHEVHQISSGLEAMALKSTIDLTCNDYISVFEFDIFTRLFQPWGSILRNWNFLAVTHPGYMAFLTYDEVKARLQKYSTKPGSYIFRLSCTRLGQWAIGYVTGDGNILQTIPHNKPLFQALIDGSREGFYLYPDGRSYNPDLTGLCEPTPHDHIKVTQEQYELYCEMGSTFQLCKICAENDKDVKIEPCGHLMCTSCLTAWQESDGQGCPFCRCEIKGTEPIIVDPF

SMILES | IC50
Cn1cnnc1[C@H](F)C1(c2cccc(-n3cc4c(C(F)(F)F)cc(CNC5(C)CCC5)cn4c3=O)c2)COC1 (single isomer, unassigned) [Compound 2] | 501 to 10000 nM
Cn1cnnc1[C@@H](F)C1(c2cccc(-n3cc4c(C(F)(F)F)cc(CNC5(C)CCC5)cn4c3=O)c2)COC1 (single isomer, unassigned) [Compound 3] | 501 to 10000 nM
COC[C@H]1CCCN1Cc1cc(C(F)(F)F)c2cn(-c3cccc(C4([C@H](F)c5nncn5C)COC4)c3)c(=O)n2c1 (single isomer, unassigned) [Compound 10] | 501 to 10000 nM
COC[C@H]1CCCN1Cc1cc(C(F)(F)F)c2cn(-c3cccc(C4([C@@H](F)c5nncn5C)COC4)c3)c(=O)n2c1 (single isomer, unassigned) [Compound 11] | 101 to 500 nM
Cn1cnnc1[C@H](F)C1(c2cccc(-n3cc4c(C(F)(F)F)cc(CN5CC(C)(CO)C5)cn4c3=O)c2)COC1 (single isomer, unassigned) [Compound 14] | 101 to 500 nM
Cn1cnnc1[C@@H](F)C1(c2cccc(-n3cc4c(C(F)(F)F)cc(CN5CC6CC5C6)cn4c3=O)c2)COC1 (single isomer, unassigned) [Compound 17] | 101 to 500 nM
Cn1cnnc1[C@@H](F)C1(c2cccc(-n3cc4c(C(F)(F)F)cc(CN5CCC5)cn4c3=O)c2)COC1 (single isomer, unassigned) [Compound 19] | 101 to 500 nM
Cn1cnnc1[C@H](F)C1(c2cccc(-n3cc4c(C(F)(F)F)cc(CN)cn4c3=O)c2)COC1 [Compound 4] | 101 to 500 nM
Cn1cnnc1[C@@H](F)[C@@](C)(F)c1cccc(-n2cc3c(C(F)(F)F)cc(CN4CCC5(CC5)C4)cn3c2=O)c1 [Compound 8] | 101 to 500 nM
Cn1cnnc1[C@H](F)[C@@](C)(F)c1cccc(-n2cc3c(C(F)(F)F)cc(CN4CCC5(CC5)C4)cn3c2=O)c1 [Compound 9] | 501 to 10000 nM

Continued, values first:

IC50 | SMILES
101 to 500 nM | Cn1cnnc1[C@@H](F)C1(c2cccc(-n3cc4c(C(F)(F)F)cc(CN)cn4c3=O)c2)COC1 (single isomer, unassigned) [Compound 5]
< 100 nM | Cn1cnnc1[C@@H](F)[C@](C)(F)c1cccc(-n2cc3c(C(F)(F)F)cc(CN4CCC5(CC5)C4)cn3c2=O)c1 (single isomer, unassigned) [Compound 6]
101 to 500 nM | Cn1cnnc1[C@@H](F)[C@](C)(F)c1cccc(-n2cc3c(C(F)(F)F)cc(CN4CCC5(CC5)C4)cn3c2=O)c1 (single isomer, unassigned) [Compound 7]
< 100 nM | CC(C)[C@H]1CN(C)CCN1Cc1cc(C(F)(F)F)c2cn(-c3cccc(C4([C@@H](F)c5nncn5C)CC(F)(F)C4)c3)c(=O)n2c1 (single isomer, unassigned) [Compound 12]
< 100 nM | CC(C)[C@H]1CN(C)CCN1Cc1cc(C(F)(F)F)c2cn(-c3cccc(C4([C@H](F)c5nncn5C)CC(F)(F)C4)c3)c(=O)n2c1 (single isomer, unassigned) [Compound 13]
< 100 nM | Cn1cnnc1[C@@H](F)C1(c2cccc(-n3cc4c(C(F)(F)F)cc(CN5CC(C)(CO)C5)cn4c3=O)c2)COC1 (single isomer, unassigned) [Compound 15]
< 100 nM | Cn1cnnc1[C@H](F)C1(c2cccc(-n3cc4c(C(F)(F)F)cc(CN5CC6CC5C6)cn4c3=O)c2)COC1 (single isomer, unassigned) [Compound 16]
< 100 nM | Cn1cnnc1[C@H](F)C1(c2cccc(-n3cc4c(C(F)(F)F)cc(CN5CCC5)cn4c3=O)c2)COC1 (single isomer, unassigned) [Compound 18]
< 100 nM | CC(C)[C@H]1CN(C)CCN1Cc1cc(C(F)(F)F)c2cn(-c3cccc(C4([C@@H](F)c5nncn5C)COC4)c3)c(=O)n2c1 (single isomer, unassigned) [Compound 20]
< 100 nM | CC(C)[C@H]1CN(C)CCN1Cc1cc(C(F)(F)F)c2cn(-c3cccc(C4([C@H](F)c5nncn5C)COC4)c3)c(=O)n2c1 (single isomer, unassigned) [Compound 21]
< 100 nM | CC(C)[C@H]1CN(C)CCN1Cc1cc(C(F)(F)F)c2cn(-c3cccc(C4(Cc5nncn5C(F)F)COC4)c3)c(=O)n2c1 [Compound 1]
